# Experimental data reported in US8685928B2, “Antagonists of MUC1” (Dana-Farber Cancer Institute, Inc., priority 2010, dated 2014).
# Non-standard residues stand in square brackets, D forms with d. Residues, ends and D or L forms follow the SMILES beside them.
# Tests used:
# [1] = system: ZR-75-1 Breast cancer cells; test: Inhibition of cell proliferation, trypan blue exclusion (Table 1); type: cell-based, human; details: 5 μM peptide every day, 6-day treatment
# Method: (§1) Cells (ZR-75-1 breast carcinoma or H-1975 non-small cell lung carcinoma) were plated separately in 24-well plates for 24 hours prior to treatment with different peptides. The cells were then treated with 5 μM (final concentration) of different peptides every day for 4-6 days. On the day of termination, cells were washed two times with PBS and trypsinized with 0.3 ml of Trypsin/EDTA. Cell growth media was used to stop the trypsin reaction. Following washing, the cells were centrifuged and the cell pellets were re-suspended in PBS for counting in hemacytometer.
# (§2) The trypan blue dye exclusion method was used to determine the number of viable cells present in a cell suspension. Cell suspension was mixed as 1:1 with the trypan blue dye and then visually examined in a hemacytometer. A viable cell will have a clear cytoplasm whereas a non-viable/dead cell will be stained with trypan blue dye. By doing this trypan blue exclusion method, viable cell numbers were counted and percent inhibition of proliferation was then calculated comparing with untreated controls.
# H1975 Lung cancer cells = test: Inhibition of cell proliferation, trypan blue exclusion (Table 2); type: cell-based, human; details: 5 μM peptide every day, 6-day treatment
# Method: as §1, §2
# [2] = system: human carcinoma cell lines
# Method: A series of in vitro and in vivo primary pharmacodynamic studies was conducted to assess efficacy and mechanism of action of GO-203-2c in human tumor cells.
# GO-203-2 and GO-203-2c were evaluated for ability to inhibit proliferation of murine and human carcinoma cell lines in vitro. Test compound (5 μM final concentration) was added to tumor cell cultures daily for 5 to 6 days, and cell viability was determined by trypan blue dye exclusion.
# [3] = system: COLO-205 colon carcinoma xenograft; test: COLO-205 colon carcinoma xenograft model, daily IP; type: in vivo, mouse; details: for Tumor response: 30 mg/kg IP daily for 28 days
# Method: (§3) Efficacy of GO-203-2, the reduced form of GO-203-2c that is responsible for binding to and inhibiting oligomerization of MUC1-CD was evaluated in several different human tumor xenograft models. For these studies BALB/c nu/nu mice (6-7 weeks old; Charles River Laboratories, Wilmington, Mass.) were injected with 10 million COLO-205 colon carcinoma, MiaPaCa pancreatic carcinoma or SKOV3 ovarian carcinoma cells in the right thigh. When tumors reached a predetermined size (80-125 mm^3), mice were randomized into groups of 8 animals and treatment was initiated, which consisted of daily IP injection of GO-203-2 (30 mg/kg), control peptide CP-2 (30 mg/kg) or PBS vehicle control for 28 days. Mice with tumors in excess of ˜2 g or with ulcerated tumors were euthanized, as were those found in obvious distress or in a moribund condition. Mice without palpable tumors were maintained until 90 to 100 days after treatment initiation to confirm lack of re-growth. In addition, animals were weighed periodically during the treatment period and examined for clinical signs of toxicity.
# [4] = system: MiaPaCa pancreatic carcinoma xenograft; test: MiaPaCa pancreatic carcinoma xenograft model, daily IP; type: in vivo, mouse; details: for Tumor response: 30 mg/kg IP daily for 28 days
# Method: as §3
# [5] = system: SKOV3 ovarian carcinoma xenograft; test: SKOV3 ovarian carcinoma xenograft model, daily IP; type: in vivo, mouse; details: for Tumor response: 30 mg/kg IP daily for 28 days
# Method: as §3
# His-tagged MUC1-CD [6] = molecular target: T1, His-tagged MUC1-CD (Homo sapiens, UniProt P15941); test: Oligomerization of purified His-tagged MUC1-CD proteins in a cell-free system; type: biochemical
# T1 construct: contains a 72-amino acid cytoplasmic domain (MUC1-CD)
# T1 sequence (P15941 1182-1255 limits assumed): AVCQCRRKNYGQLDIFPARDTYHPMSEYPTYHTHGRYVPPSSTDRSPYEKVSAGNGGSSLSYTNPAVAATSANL
# Text: This finding is not surprising based on a requirement for the cysteine residues in the GO-203-2 binding domain (CQCRRKN) to be available for binding with cysteine residues on the corresponding binding domain of the MUC1-CD protein.
# His-tagged MUC1-CD [7] = test: Cell-free oligomerization of purified His-tagged MUC1-CD, species comparison; type: biochemical; details: MUC1-CD from rat, dog and human compared
# Method: (§4) Studies were also conducted to confirm pharmacological relevance of the rodent and nonrodent species chosen for toxicology studies, namely the rat and dog, respectively. MUC1-CD amino acid sequence was determined to be greater than 80% identical between rat, dog and human proteins, and similar expression of MUC1 was found in stomach, intestinal and lung epithelium from the different species using immunohistochemical staining. […] The results of these studies indicate that potential MUC1-CD targets in the rat, dog and human are similar with respect to sequence, tissue expression and responsiveness to inhibition of oligomerization by GO-203-2c, and confirm pharmacological relevance of the species chosen for nonclinical safety assessment of GO-203-2c.
# MUC1-CD = MUC1-CD oligomerization in transfected HEK 293T cells, species comparison; type: cell-based; details: MUC1-CD from rat, dog and human compared
# Method: as §4
# [8] = Clinical signs of toxicity in xenograft-bearing mice; type: in vivo, mouse; details: 30 mg/kg IP daily for 28 days
# Method: as §3
# adrenergic α1A receptor = adrenergic α1A receptor (Homo sapiens, UniProt P35348); test: biochemical
# Sequence of adrenergic α1A receptor (P35348 whole entry): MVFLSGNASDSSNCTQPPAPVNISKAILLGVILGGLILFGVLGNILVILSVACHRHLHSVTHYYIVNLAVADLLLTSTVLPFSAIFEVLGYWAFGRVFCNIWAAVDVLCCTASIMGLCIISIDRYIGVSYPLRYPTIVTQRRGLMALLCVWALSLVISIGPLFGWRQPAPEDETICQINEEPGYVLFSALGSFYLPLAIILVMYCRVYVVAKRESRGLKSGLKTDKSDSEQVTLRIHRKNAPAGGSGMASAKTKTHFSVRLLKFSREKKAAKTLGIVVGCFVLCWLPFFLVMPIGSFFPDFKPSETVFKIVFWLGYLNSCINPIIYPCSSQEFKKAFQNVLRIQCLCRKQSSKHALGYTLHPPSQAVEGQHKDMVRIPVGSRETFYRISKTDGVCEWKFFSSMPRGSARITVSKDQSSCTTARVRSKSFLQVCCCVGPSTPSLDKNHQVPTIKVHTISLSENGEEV
# adrenergic α1B receptor = adrenergic α1B receptor (Homo sapiens, UniProt P35368); test: biochemical
# Sequence of adrenergic α1B receptor (P35368 whole entry): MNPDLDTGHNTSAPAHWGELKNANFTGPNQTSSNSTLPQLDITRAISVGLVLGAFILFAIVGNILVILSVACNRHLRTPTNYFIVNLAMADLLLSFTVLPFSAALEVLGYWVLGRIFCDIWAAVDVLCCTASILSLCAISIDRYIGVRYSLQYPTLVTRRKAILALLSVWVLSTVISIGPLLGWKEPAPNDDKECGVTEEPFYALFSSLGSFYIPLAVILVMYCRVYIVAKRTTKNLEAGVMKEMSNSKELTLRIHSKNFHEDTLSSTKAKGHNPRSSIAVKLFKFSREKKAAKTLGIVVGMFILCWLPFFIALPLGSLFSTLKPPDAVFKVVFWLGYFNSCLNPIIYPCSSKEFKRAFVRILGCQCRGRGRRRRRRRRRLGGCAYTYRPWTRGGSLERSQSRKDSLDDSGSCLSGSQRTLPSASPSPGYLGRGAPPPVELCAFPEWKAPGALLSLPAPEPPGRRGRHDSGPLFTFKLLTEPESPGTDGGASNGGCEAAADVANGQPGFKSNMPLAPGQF
# [9] = molecular target: T2, norepinephrine transporter (Homo sapiens, UniProt P23975); test: biochemical
# T2 sequence (P23975 whole entry, species assumed): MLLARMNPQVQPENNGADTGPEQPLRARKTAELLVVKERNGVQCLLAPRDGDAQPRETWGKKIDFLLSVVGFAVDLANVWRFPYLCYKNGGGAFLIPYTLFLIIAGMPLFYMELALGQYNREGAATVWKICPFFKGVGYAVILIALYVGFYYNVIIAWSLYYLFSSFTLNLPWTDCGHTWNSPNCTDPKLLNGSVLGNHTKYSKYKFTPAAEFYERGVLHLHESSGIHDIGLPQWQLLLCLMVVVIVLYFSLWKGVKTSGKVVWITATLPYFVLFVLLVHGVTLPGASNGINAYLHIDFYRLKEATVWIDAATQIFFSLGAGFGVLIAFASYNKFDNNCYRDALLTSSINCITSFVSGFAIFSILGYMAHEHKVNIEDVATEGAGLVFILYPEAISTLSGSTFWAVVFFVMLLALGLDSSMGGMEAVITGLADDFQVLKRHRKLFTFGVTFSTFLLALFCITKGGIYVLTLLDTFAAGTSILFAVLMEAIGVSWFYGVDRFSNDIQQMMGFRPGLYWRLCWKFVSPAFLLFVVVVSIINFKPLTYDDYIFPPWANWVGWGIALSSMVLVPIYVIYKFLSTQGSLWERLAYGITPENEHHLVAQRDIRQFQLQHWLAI
# muscarinic M2 receptor [10] = molecular target: T3, muscarinic M2 receptor (Homo sapiens, UniProt P08172); test: biochemical
# T3 sequence (P08172 whole entry): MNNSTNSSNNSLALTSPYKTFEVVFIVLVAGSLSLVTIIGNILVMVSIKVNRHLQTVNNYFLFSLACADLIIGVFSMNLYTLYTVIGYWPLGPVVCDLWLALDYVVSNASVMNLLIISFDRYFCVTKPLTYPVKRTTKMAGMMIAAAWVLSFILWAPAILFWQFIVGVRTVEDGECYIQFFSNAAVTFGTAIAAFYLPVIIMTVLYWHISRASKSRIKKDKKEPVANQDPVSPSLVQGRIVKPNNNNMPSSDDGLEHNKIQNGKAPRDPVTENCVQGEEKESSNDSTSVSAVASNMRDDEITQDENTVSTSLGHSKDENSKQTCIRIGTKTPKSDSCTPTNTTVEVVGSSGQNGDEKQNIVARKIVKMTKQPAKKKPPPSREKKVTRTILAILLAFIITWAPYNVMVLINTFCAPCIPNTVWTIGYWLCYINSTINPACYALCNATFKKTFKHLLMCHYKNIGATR
# [11] = molecular target: nicotinic acetylcholine α1 (bungarotoxin) receptor (Homo sapiens, UniProt P02708+P07510+Q07001); test: biochemical
# Sequence of nicotinic acetylcholine α1 (bungarotoxin) receptor (P07510 23-517): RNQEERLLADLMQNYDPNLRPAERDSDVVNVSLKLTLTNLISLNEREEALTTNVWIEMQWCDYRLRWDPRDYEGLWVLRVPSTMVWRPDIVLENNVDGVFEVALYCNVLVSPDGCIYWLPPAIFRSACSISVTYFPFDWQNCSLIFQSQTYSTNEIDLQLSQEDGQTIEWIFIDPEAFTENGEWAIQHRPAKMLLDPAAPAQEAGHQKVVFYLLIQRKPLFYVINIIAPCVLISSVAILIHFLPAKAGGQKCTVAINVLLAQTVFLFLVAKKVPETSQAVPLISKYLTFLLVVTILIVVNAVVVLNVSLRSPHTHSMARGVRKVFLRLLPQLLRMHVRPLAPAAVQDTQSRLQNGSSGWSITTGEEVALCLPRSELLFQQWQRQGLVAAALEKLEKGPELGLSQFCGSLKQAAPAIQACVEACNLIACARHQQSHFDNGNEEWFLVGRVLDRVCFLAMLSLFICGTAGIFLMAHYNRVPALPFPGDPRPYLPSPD
# Sequence of nicotinic acetylcholine α1 (bungarotoxin) receptor (P02708 21-457): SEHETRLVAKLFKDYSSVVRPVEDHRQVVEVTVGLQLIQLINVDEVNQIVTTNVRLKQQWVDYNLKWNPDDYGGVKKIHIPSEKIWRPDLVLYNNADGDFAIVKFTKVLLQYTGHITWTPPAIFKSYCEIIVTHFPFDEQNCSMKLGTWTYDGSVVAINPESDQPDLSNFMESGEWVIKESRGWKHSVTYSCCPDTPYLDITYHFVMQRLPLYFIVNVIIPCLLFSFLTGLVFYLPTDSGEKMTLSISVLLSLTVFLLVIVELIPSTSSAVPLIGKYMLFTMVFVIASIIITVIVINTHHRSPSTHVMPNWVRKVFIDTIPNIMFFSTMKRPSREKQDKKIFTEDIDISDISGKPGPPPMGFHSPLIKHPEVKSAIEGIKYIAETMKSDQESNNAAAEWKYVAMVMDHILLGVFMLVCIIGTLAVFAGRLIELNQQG
# Sequence of nicotinic acetylcholine α1 (bungarotoxin) receptor (Q07001 22-517): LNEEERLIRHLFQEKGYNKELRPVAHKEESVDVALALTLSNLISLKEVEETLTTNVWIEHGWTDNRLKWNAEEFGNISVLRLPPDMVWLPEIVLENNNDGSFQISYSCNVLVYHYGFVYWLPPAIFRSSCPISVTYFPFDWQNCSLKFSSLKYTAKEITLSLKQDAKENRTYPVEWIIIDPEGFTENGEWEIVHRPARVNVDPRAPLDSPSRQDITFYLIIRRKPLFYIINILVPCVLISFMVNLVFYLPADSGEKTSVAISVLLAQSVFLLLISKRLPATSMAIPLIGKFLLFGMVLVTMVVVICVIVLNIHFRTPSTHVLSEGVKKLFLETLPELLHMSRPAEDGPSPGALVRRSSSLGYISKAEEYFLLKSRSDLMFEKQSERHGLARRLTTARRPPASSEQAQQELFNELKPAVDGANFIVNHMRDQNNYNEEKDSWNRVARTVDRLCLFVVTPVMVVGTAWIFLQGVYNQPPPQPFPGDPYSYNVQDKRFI
# Sequence of nicotinic acetylcholine α1 (bungarotoxin) receptor (P11230 24-501, further chain): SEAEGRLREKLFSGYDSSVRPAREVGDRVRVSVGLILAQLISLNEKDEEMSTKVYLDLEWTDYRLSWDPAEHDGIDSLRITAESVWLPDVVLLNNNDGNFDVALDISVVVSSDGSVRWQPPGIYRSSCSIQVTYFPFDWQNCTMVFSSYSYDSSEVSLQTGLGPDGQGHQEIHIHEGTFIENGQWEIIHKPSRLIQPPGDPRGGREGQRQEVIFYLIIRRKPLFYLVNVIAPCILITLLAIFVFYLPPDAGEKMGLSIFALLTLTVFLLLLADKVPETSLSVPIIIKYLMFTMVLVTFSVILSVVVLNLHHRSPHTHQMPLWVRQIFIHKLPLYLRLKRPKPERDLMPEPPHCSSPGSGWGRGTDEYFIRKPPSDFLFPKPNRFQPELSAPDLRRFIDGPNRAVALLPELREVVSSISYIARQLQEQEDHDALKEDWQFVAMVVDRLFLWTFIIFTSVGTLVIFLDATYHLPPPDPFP
# [12] = system: ZR-75-1 human breast carcinoma xenograft; test: ZR-75-1 human breast carcinoma xenograft model, daily dosing for 21 days; type: in vivo, mouse; details: 4 mg/kg IV daily for 21 days, nu/nu mice
# Method: Efficacy of GO-203-2c was evaluated in a ZR-75-1 human breast carcinoma xenograft model. Female nu/nu mice (20-30 g; Charles River Laboratories, Wilmington, Mass.) were injected in the thigh with 5 million ZR-75-1 cells in Matrigel suspension. Mice also received subcutaneous 17-β-estradiol pellets. When tumors reached 100-200 mm^3 in size (approximately 12-15 days after implantation), mice were split into 4 groups of 5 mice and administered the following treatments daily for 21 days: phosphate-buffered saline (PBS) IP, 1 mg/kg GO-203-2c IV, 4 mg/kg GO-203-2c IV or 4 mg/kg control peptide CP-3 IV. Each animal was sacrificed when the tumor reached the predetermined endpoint size (˜2500 mm^3) or when the animals remained tumor-free for 180 days after implantation of the tumor cells.
# [13] = molecular target: T2, norepinephrine transporter; details: at a concentration of 10 μM
# muscarinic M2 receptor [14] = molecular target: T3, muscarinic M2 receptor; details: at a concentration of 10 μM
# [15] = up to 90 to 100 days post treatment initiation
molecule,measurement,setting,value
CC(=O)N[C@H](CCCNC(=N)N)C(=O)N[C@H](CCCNC(=N)N)C(=O)N[C@H](CCCNC(=N)N)C(=O)N[C@H](CCCNC(=N)N)C(=O)N[C@H](CCCNC(=N)N)C(=O)N[C@H](CCCNC(=N)N)C(=O)N[C@H](CCCNC(=N)N)C(=O)N[C@H](CCCNC(=N)N)C(=O)N[C@H](CCCNC(=N)N)C(=O)N[C@H](CS)C(=O)N[C@H](CCC(N)=O)C(=O)N[C@H](CS)C(=O)N[C@H](CCCNC(=N)N)C(=O)N[C@H](CCCNC(=N)N)C(=O)N[C@H](CCCCN)C(=O)N[C@H](CC(N)=O)C(N)=O [GO-203-2] (Ac-[dR][dR][dR][dR][dR][dR][dR][dR][dR][dC][dQ][dC][dR][dR][dK][dN]-NH2),Avg (viable cell number of Groups 1-3),[1],8.06
same,% inhibition,[1]; vs untreated control,65.49%
same,"Group-1 (viable cell number, individual well)","[1]; well having 10,000 cells",7.14
same,"Group-2 (viable cell number, individual well)","[1]; well having 10,000 cells",9.38
same,"Group-3 (viable cell number, individual well)","[1]; well having 10,000 cells",7.67
same,Avg (viable cell number of Groups 1-3),H1975 Lung cancer cells,6.66
same,% inhibition,H1975 Lung cancer cells; vs untreated control,63.64%
same,"Group-1 (viable cell number, individual well)","H1975 Lung cancer cells; well having 10,000 cells",6.23
same,"Group-2 (viable cell number, individual well)","H1975 Lung cancer cells; well having 10,000 cells",6.34
same,"Group-3 (viable cell number, individual well)","H1975 Lung cancer cells; well having 10,000 cells",7.42
same,50% inhibition (IC50) of proliferation,[2],5 to 11 µg/mL
same,IC50,[2],2 to 5 µM
same,Tumor response,[3],complete tumor growth arrest and regression
same,Recurrence of tumors,[3]; [15],no evidence of recurrence
same,Tumor response,[4],complete growth arrest and regression
same,Recurrence of tumors,[4]; [15],no evidence of recurrence
same,Tumor response,[5],complete tumor growth arrest and regression
same,Recurrence of tumors,[5]; [15],no evidence of recurrence
same,"Inhibition of MUC1-CD oligomerization, reduced vs oxidized form",His-tagged MUC1-CD [6],much more effective
same,Inhibition of oligomerization of purified His-tagged MUC1-CD,His-tagged MUC1-CD [7],inhibited
same,Inhibition of MUC1-CD oligomerization,MUC1-CD,in an equivalent manner
same,"Side effects of treatment (weight, clinical signs of toxicity)",[8],no observable side effects
same,IC50,adrenergic α1A receptor,3 to 8 µM
same,IC50,adrenergic α1B receptor,3 to 8 µM
same,IC50,[9],3 to 8 µM
same,IC50,muscarinic M2 receptor [10],3 to 8 µM
same,IC50,[11],3 to 8 µM
CP-3: control peptide containing AQA instead of CQC amino acid sequence in the binding domain (RRRRRRRRRCQCRRKN) [reference compound],Tumor response,[12],ineffective
same,Tumor response,[12]; listed as CP3,no effect on tumor growth
same,% inhibition of radioligand binding,[13],79%
same,% inhibition of radioligand binding,muscarinic M2 receptor [14],55%
"C[C@@H](NC(=O)[C@@H](CCC(N)=O)NC(=O)[C@@H](C)NC(=O)[C@@H](CCCNC(=N)N)NC(=O)[C@@H](CCCNC(=N)N)NC(=O)[C@@H](CCCNC(=N)N)NC(=O)[C@@H](CCCNC(=N)N)NC(=O)[C@@H](CCCNC(=N)N)NC(=O)[C@@H](CCCNC(=N)N)NC(=O)[C@@H](CCCNC(=N)N)NC(=O)[C@@H](CCCNC(=N)N)NC(=O)[C@H](N)CCCNC(=N)N)C(=O)N[C@H](CCCNC(=N)N)C(=O)N[C@H](CCCNC(=N)N)C(=O)N[C@H](CCCCN)C(=O)N[C@H](CC(N)=O)C(=O)O [CP-2, reference compound] (H-[dR][dR][dR][dR][dR][dR][dR][dR][dR][dA][dQ][dA][dR][dR][dK][dN]-OH)",Tumor response,[3],without effect
same,Tumor response,[4],without effect
same,Tumor response,[5],without effect
same,"Side effects of treatment (weight, clinical signs of toxicity)",[8],no observable side effects
